Measurements from patent US9737552B2, “Treatment of cognitive impairment in a subject with a neurological autoimmune disease” (The Johns Hopkins University, priority 2010, dated 2017).
Like-named read-outs stand apart in the source and are kept apart here.

Assays:
[1] = system: EAE mice; assay: Fear conditioning test in EAE mice; type: in vivo
Procedure: To measure fear memory and amygdala function in EAE mice, fear conditioning tests were performed. Following the Barnes maze testing, animals were given 1-2 weeks rest then subjected to fear conditioning. Briefly, animals were placed in a fear conditioning chamber for 240 seconds on 3 consecutive days. On day 1, a 2000 Hz tone was played for 28 seconds (seconds 180-208), immediately followed by a 2 second scrambled footshock (seconds 208-210). On day 2, animals were placed back in the same testing environment, but neither sound nor shock was administered. On days 3 and 5, mice were placed in a novel wooden box inside the fear conditioning chamber, and a 2000 Hz tone was played for 120 seconds (seconds 121-240). The duration of freezing behavior on each day was measured using FreezeScan software (Clever Sys Inc., Reston, Va.).

[2] = system: EAE mice; assay: Barnes maze testing in EAE mice; type: in vivo
Procedure: To measure cognitive function in EAE mice, Barnes maze testing was conducted using the immunized mice, beginning approximately 4 weeks post-immunization. […] Animals were trained on the Barnes maze (AccuScan Instruments, Columbus, Ohio) for 4 trials per day (inter-trial interval >30 minutes) for 4 consecutive days. Briefly, mice were placed in the center of the maze platform under an opaque enclosed 3″×5″× container. After 15 seconds the container was removed and the mice were free to move in the maze. A target box was placed under 1 of the 40 holes around the maze perimeter, and the location of the target box, along with the location of 4 equally spaced polarizing visual cues and one lamp, remained the same throughout all trials. Mice were given up to 3 minutes to locate and enter the target box, and were gently guided into the target box if it was not found within the 3 minute limit. Following entry into the target box, the box was covered and the mouse remained in the box for 30 seconds before transfer to a holding cage. Paths were recorded and latency to the target hole, path efficiency, speed, and directional times were calculated using ANY-maze software (Stoelting, Wood Dale, Ill.).

[3] = Mass spectrometry of 2-PMPA concentration in post-mortem brains of EAE mice; type: in vivo; conditions: mouse, ip, Mean±SEM, 100 mg/kg daily i.p., sacrifice 50 days after immunization
Procedure: (§1) To determine whether GCPII inhibition altered the levels of the enzyme's substrate (NAAG) or product (NAA), mass spectrometry was conducted in post-mortem brains of EAE mice either treated with 2-PMPA or a vehicle control. Animals were sacrificed by cervical dislocation 50 days after EAE immunization. Hippocampus, frontal lobe, and cerebellum structures were dissected, and NAA, NAAG, and 2-PMPA concentrations were measured via mass spectrometry. Briefly, NAAG and NAA in brain tissue homogenates were separated on a Waters Atlantis ODS column. NAA, NAAG, and the internal standard were monitored by tandem mass spectrometry with electrospray negative ionization. Linear calibration curves were generated over the range of 5-5000 ng/mL and converted to μg/g. For determination of 2-PMPA, separations were achieved on a Waters XTerra MS C18 column. 2-PMPA and the internal standard were monitored by tandem mass spectrometry with electrospray negative ionization. Linear calibration curves were generated over the 1-100 ng/mL range and converted to μg/g.

[4] = system: GCPII; assay: Mass spectrometry of NAA and NAAG in post-mortem brains of EAE mice; type: in vivo; conditions: Mean±SEM, 50 days after EAE immunization
Procedure: as §1

[5] = system: EAE mice
Procedure: A separate cohort of 2-PMPA and Control EAE mice (n=6-7) were tested on the elevated plus maze 27 days after disease induction. Mice were placed in the center of the maze and given 5 minutes to freely explore the maze. Time spent in open and closed arms of the maze were tracked using ANY-maze software (Stoelting, Wood Dale, Ill.).

[6] = system: EAE mice; assay: EAE disease score in MOG35-55 immunized mice; type: in vivo; conditions: 100 mg/kg daily i.p. from immunization until sacrifice; vs Control mice
Procedure: The effects of GCPII inhibition were tested on an animal model of multiple sclerosis (experimental autoimmune encephalomyelitis, or “EAE”). To induce EAE, mice were given two 50 μL subcutaneous flank injections of myelin oligodendrocyte glycoprotein 35-55 peptide fragment (MOG35-55) dissolved in 50 μL PBS emulsified in 50 μL IFA supplemented with 400 μg M. tuberculosis H37Ra, at a final concentration of 100 μg MOG35-55 per 100 μL total volume. At the time of MOG immunization and 2 days later, all EAE mice were administered intraperitoneal injections of 300 ng pertussis toxin in 100 μL PBS. Immunized mice were treated with either 2-PMPA or a vehicle control for the duration of the experiment. Vehicle (50 mM HEPES buffer) or 2-PMPA (100 mg/kg in vehicle at a pH of 7.4) was delivered daily via 0.1 mL intraperitoneal injections from the time of EAE immunization until sacrifice.

Q: For `O=C(O)CCC(CP(=O)(O)O)C(=O)O` (centres unmarked) [2-PMPA, 2-(phosphonomethyl)pentanedioic acid], which “Baseline freezing on Day 1” value ([1]; Day 1) is on record?
A: The value was less than 20%.

Q: And the “Cued freezing behavior on Day 3” value ([1]; Day 3, vs control)?
A: Its value is “No differences”.

Q: And the “Cued freezing in response to the 120 second tone on Day 5” value ([1]; Day 5, specifically in the last 60 seconds, vs control)?
A: Its value is “increased cued freezing”.

Q: What about the “Contextual freezing on Day 2” value ([1]; Mean±SEM, Day 2, % time freezing (FIG. 5 legend)) of the same compound?
A: Its value is 50.49±4.18.

Q: And the “Primary latency, total latency and path efficiency on the first two days of Barnes maze testing” value ([2]; 100 mg/kg daily i.p., vs vehicle)?
A: Its value is “equal between groups”.

Q: And the “Path efficiency, first trial of day 4 compared to baseline (day 1, trial 1)” value ([2]; Mean±SEM, 100 mg/kg daily i.p., p=0.0029 vs Control)?
A: Its value is −0.7276±0.0295.

Q: What about the “Primary latency, first trial of day 4 compared to baseline (day 1, trial 1)” value ([2]; Mean±SEM, 100 mg/kg daily i.p., p=0.0072 vs Control) of the same compound?
A: The value was 167.4±1.187.

Q: And the “Total latency, first trial of day 4 compared to baseline (day 1, trial 1)” value ([2]; Mean±SEM, 100 mg/kg daily i.p., p=0.0171 vs Control)?
A: The value was 167.4±1.187.

Q: And the “Path efficiency, back-to-back trials on consecutive days (long-term memory)” value ([2]; Mean±SEM, e.g. trial 4 of day 3 vs. trial 1 of day 4, p=0.020 vs controls)?
A: The value was −0.1377±0.0937.

Q: What about the “Total latency, back-to-back trials on consecutive days (long-term memory)” value ([2]; Mean±SEM, e.g. trial 4 of day 3 vs. trial 1 of day 4, p=0.021 vs controls) of the same compound?
A: The value was 13.14±7.69.

Q: And the “Maximum speed in the maze” value ([2]; vs control EAE group)?
A: The value was “No differences”.

Q: And the concentration at 50 days after EAE immunization ([3]; cerebellum, read-out: 2-PMPA in the cerebellum)?
A: The concentration at 50 days after EAE immunization was 832 ± 56 ng/g.

Q: And the concentration at 50 days after EAE immunization ([3]; frontal cortex, read-out: 2-PMPA in the frontal cortex)?
A: The concentration at 50 days after EAE immunization was 1190 ± 222 ng/g.

Q: What about the concentration at 50 days after EAE immunization ([3]; hippocampus, read-out: 2-PMPA in the hippocampus) of the same compound?
A: Its concentration at 50 days after EAE immunization is 835 ± 264 ng/g.

Q: And the “NAAG concentration in the frontal cortex” value ([4]; p=0.0002 vs control)?
A: Its value is 32.91 ± 0.93 µg/g.

Q: And the “NAAG concentration in the cerebellum” value ([4]; p=0.0655 vs control)?
A: Its value is 102.4 ± 2.3 µg/g.

Q: And the “NAA in the hippocampus” value ([4]; p=0.2895 vs control)?
A: Its value is 985.0 ± 48.12 µg/g.

Q: And the “NAA in the frontal cortex” value ([4]; p=0.3035 vs control)?
A: Its value is 1134 ± 45.65 µg/g.

Q: What about the “NAA in the cerebellum” value ([4]; p=0.3053 vs control) of the same compound?
A: The value was 899.3 ± 19.66 µg/g.

Q: And the “NAAG concentration in the hippocampus” value ([4]; p=0.8575 vs control)?
A: Its value is 54.98 ± 2.037 µg/g.

Q: And the “Time spent in the closed arms” value [5]?
A: The value was 224.2±10.07.

Q: What about the “Time spent in the open arms” value [5] of the same compound?
A: Its value is 34.10±9.22.

Q: And the “Disease severity and progression, as measured by EAE disease scores” value [6]?
A: The value was “did not differ”.
